In ChEMBL document CHEMBL1201862, “PubChem BioAssay data set” (2004):
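Dose response: 5 concentrations. Exposure: 48 h. Format: 96-well plates. Endpoint: linear interpolation; highest concentration if not reached. GI50: concentration for 50% inhibition of growth.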 The source made the active and inactive calls. No stated cut-off is given here; in the data, active = GI50 up to about 1.1 µM and inactive = higher.

Experiments:
Test in all cases: NCI tumour cell line growth inhibition, 48 h
786-0 = test system: 786-0
A498 = test system: A498
A549 = test system: A549
ACHN = test system: ACHN
CAKI-1 = test system: CAKI-1
CCRF-CEM = test system: CCRF-CEM
COLO 205 = test system: COLO 205
DLD-1 = test system: DLD-1
DMS-114 = test system: DMS-114
DMS-273 = test system: DMS-273
EKVX = test system: EKVX
HCC 2998 = test system: HCC 2998
HCT-116 = test system: HCT-116
HCT-15 = test system: HCT-15
HL-60 = test system: HL-60
HOP-18 = test system: HOP-18
HOP-62 = test system: HOP-62
HT-29 = test system: HT-29
IGROV-1 = test system: IGROV-1
K562 = test system: K562
KM-20L2 = test system: KM-20L2
KM12 = test system: KM12
LXFL 529 = test system: LXFL 529
M14 = test system: M14
M19-MEL = test system: M19-MEL
MOLT-4 = test system: MOLT-4
Malme-3M = test system: Malme-3M
NCI-H226 = test system: NCI-H226
NCI-H23 = test system: NCI-H23
NCI-H460 = test system: NCI-H460
NCI-H522 = test system: NCI-H522
OVCAR-3 = test system: OVCAR-3
OVCAR-4 = test system: OVCAR-4
OVCAR-5 = test system: OVCAR-5
OVCAR-8 = test system: OVCAR-8
RPMI-8226 = test system: RPMI-8226
RXF 631 = test system: RXF 631
SF-268 = test system: SF-268
SF-295 = test system: SF-295
SF-539 = test system: SF-539
SK-MEL-28 = test system: SK-MEL-28
SK-MEL-2 = test system: SK-MEL-2
SK-MEL-5 = test system: SK-MEL-5
SK-OV-3 = test system: SK-OV-3
SN12C = test system: SN12C
SNB-19 = test system: SNB-19
SNB-75 = test system: SNB-75
SNB-78 = test system: SNB-78
SR = test system: SR
SW-620 = test system: SW-620
TK-10 = test system: TK-10
U-251 = test system: U-251
UACC-257 = test system: UACC-257
UACC-62 = test system: UACC-62
UO-31 = test system: UO-31
XF498 = test system: XF498
HOP-92 = test system: HOP-92
LOX IMVI = test system: LOX IMVI
RXF 393 = test system: RXF 393

Measured: GI50

C/C(CN1C(=O)c2ccccc2C1=O)=N\NS(=O)(=O)c1cccc(C(=O)O)c1
inactive: 786-0 > 100 µM | A498 > 100 µM | A549 > 100 µM | ACHN > 100 µM | CAKI-1 > 100 µM | CCRF-CEM > 100 µM | COLO 205 > 100 µM | DLD-1 > 100 µM | DMS-114 > 100 µM | DMS-273 > 100 µM | EKVX > 100 µM | HCC 2998 > 100 µM | HCT-116 > 100 µM | HL-60 > 100 µM | HOP-18 > 100 µM | HOP-62 > 100 µM | HT-29 > 100 µM | IGROV-1 > 100 µM | K562 > 100 µM | KM-20L2 > 100 µM | KM12 > 100 µM | LXFL 529 > 100 µM | M14 > 100 µM | M19-MEL > 100 µM | MOLT-4 > 100 µM | Malme-3M > 100 µM | NCI-H226 > 100 µM | NCI-H23 > 100 µM | NCI-H460 > 100 µM | NCI-H522 > 100 µM | OVCAR-3 > 100 µM | OVCAR-4 > 100 µM | OVCAR-5 > 100 µM | OVCAR-8 > 100 µM | RPMI-8226 > 100 µM | RXF 631 > 100 µM | SF-268 > 100 µM | SF-295 > 100 µM | SF-539 > 100 µM | SK-MEL-28 > 100 µM | SK-MEL-2 > 100 µM | SK-MEL-5 > 100 µM | SK-OV-3 > 100 µM | SN12C > 100 µM | SNB-19 > 100 µM | SNB-75 > 100 µM | SNB-78 > 100 µM | SR > 100 µM | SW-620 > 100 µM | TK-10 > 100 µM | U-251 > 100 µM | UACC-257 > 100 µM | UACC-62 > 100 µM | UO-31 > 100 µM | XF498 > 100 µM
> 100 µM: HCT-15

NCCc1ccc2oc3cc(=O)c4ccccc4c-3nc2c1
active: A549 0.478 µM | COLO 205 0.428 µM | DMS-114 1.08 µM | HOP-18 1 µM | M19-MEL 0.3 µM | NCI-H23 0.746 µM | NCI-H460 0.9 µM | SK-MEL-5 0.705 µM
0.966 µM: HCT-15
inactive: 786-0 2.12 µM | A498 13.3 µM | ACHN 2.61 µM | CAKI-1 11.5 µM | CCRF-CEM 1.79 µM | DLD-1 2.04 µM | DMS-273 1.36 µM | EKVX 11.6 µM | HCC 2998 2.37 µM | HCT-116 1.41 µM | HL-60 1.68 µM | HOP-62 3.09 µM | HOP-92 7.71 µM | HT-29 1.82 µM | IGROV-1 2.59 µM | K562 2.02 µM | KM-20L2 2.75 µM | KM12 2.67 µM | LOX IMVI 1.24 µM | LXFL 529 2.58 µM | M14 1.71 µM | MOLT-4 1.9 µM | Malme-3M 2.12 µM | NCI-H226 5.19 µM | NCI-H522 2.59 µM | OVCAR-3 2.16 µM | OVCAR-4 4.68 µM | OVCAR-5 6.14 µM | OVCAR-8 4.91 µM | RPMI-8226 2.55 µM | RXF 393 2.84 µM | RXF 631 2.96 µM | SF-268 3.85 µM | SF-295 2.3 µM | SF-539 2.6 µM | SK-MEL-28 3.81 µM | SK-MEL-2 1.71 µM | SK-OV-3 12.1 µM | SN12C 2.22 µM | SNB-19 2.71 µM | SNB-75 2.22 µM | SNB-78 9.35 µM | SR 1.62 µM | SW-620 2.19 µM | TK-10 14 µM | U-251 2.62 µM | UACC-257 2.37 µM | UACC-62 4.37 µM | UO-31 2.14 µM | XF498 3.41 µM

N#CCC(=O)N/N=C(/C(=O)Nc1ccccc1)C1C(=O)N(c2ccccc2)N=C1N (centres undefined)
inactive: 786-0 > 100 µM | A498 > 100 µM | A549 > 100 µM | ACHN > 100 µM | CAKI-1 > 100 µM | CCRF-CEM > 100 µM | COLO 205 > 100 µM | DLD-1 > 100 µM | DMS-114 > 100 µM | DMS-273 > 100 µM | EKVX > 100 µM | HCC 2998 > 100 µM | HCT-116 > 100 µM | HL-60 > 100 µM | HOP-18 > 100 µM | HOP-62 > 100 µM | HOP-92 > 100 µM | HT-29 > 100 µM | IGROV-1 > 100 µM | K562 > 100 µM | KM-20L2 > 100 µM | KM12 > 100 µM | LOX IMVI > 100 µM | LXFL 529 > 100 µM | M14 > 100 µM | M19-MEL > 100 µM | MOLT-4 > 100 µM | Malme-3M > 100 µM | NCI-H226 > 100 µM | NCI-H23 > 100 µM | NCI-H460 > 100 µM | NCI-H522 > 100 µM | OVCAR-3 > 100 µM | OVCAR-4 > 100 µM | OVCAR-5 > 100 µM | OVCAR-8 > 100 µM | RPMI-8226 > 100 µM | RXF 393 > 100 µM | RXF 631 > 100 µM | SF-268 > 100 µM | SF-295 > 100 µM | SF-539 > 100 µM | SK-MEL-28 > 100 µM | SK-MEL-2 > 100 µM | SK-MEL-5 > 100 µM | SK-OV-3 > 100 µM | SN12C > 100 µM | SNB-19 > 100 µM | SNB-75 > 100 µM | SNB-78 > 100 µM | SR > 100 µM | SW-620 > 100 µM | TK-10 > 100 µM | U-251 > 100 µM | UACC-257 > 100 µM | UACC-62 > 100 µM | UO-31 > 100 µM | XF498 > 100 µM
> 100 µM: HCT-15
